Test results as given in patent US6759409B2, “Inhibitors of papilloma virus” (Boehringer Ingelheim (Canada) Ltd., priority 2000, dated 2004).

Target: T1, HPV-11 E1-E2-DNA origin of replication complex (Human papillomavirus 11, UniProt P04015)
T1 construct: approximately 100-200 ng of purified E1
Assay: E2-dependent E1 DNA binding assay (E1-E2 DNA assay)
Protocol: This particular assay determines the ability of a test compound to inhibit the activity (IC50) of HPV-11 DNA replication. More specifically, in the assay described herein, the inhibitory activity of the test compound is evaluated based on its ability to interfere with the E1-E2-DNA origin of replication interaction, thereby inhibiting initiation of viral DNA replication.
This assay was modeled on a similar assay for SV40 T Antigen described by McKay (J. Mol. Biol., 1981,145:471). A 400 bp radiolabeled DNA probe, containing the HPV-11 origin of replication (Chiang et al., 1992, Proc. Natl. Acad. Sci. USA 89:5799) was produced by pcr, using plasmid pBluescript™ SK encoding the origin (nucleotides 7886-61 of the HPV-11 genome in unique BAMH1 site) as template and primers flanking the origin. Radiolabel was incorporated as [^33P]dCTP. Binding assay buffer consisted of: 20 mM Tris pH 7.6, 100 mM NaCl, 1 mM DTT, 1 mM EDTA.
Other reagents used were protein A-SPA beads (type II, Amersham) and K72 rabbit polyclonal antiserum, raised against a peptide corresponding to the C-terminal 14 amino acids of HPV-11 E1. Following the protocol from Amersham, one bottle of beads was mixed with 25 mL of binding assay buffer. For the assay, a saturating amount of K72 antiserum was added to the beads and the mixture was incubated for 1 h, washed with one volume of binding assay buffer, and then resuspended in the same volume of fresh binding assay buffer. Binding reactions contained 8 ng of E2, approximately 100-200 ng of purified E1, and 0.4 ng of radiolabeled probe in a total of 80 μL of binding assay buffer. After 1 h at room temperature, 25 μL of K72 antibody-SPA bead suspension was added to with the binding reaction and mixed. After an additional hour of incubation at room temperature, the reactions were centrifuged briefly to pellet the beads and the extent of complex formation was determined by scintillation counting on a Packard TopCount™. Typically, the signal for reactions containing E1 and E2 was 20-30 fold higher than the background observed when either E1, E2, or both was omitted.

[1] = Table 1A, enantiomerically pure cis/cis isomer (form 1)
[2] = Table 1, racemic cis/cis isomer (form 1)

T1 sequence (P04015 whole entry, one chain of several): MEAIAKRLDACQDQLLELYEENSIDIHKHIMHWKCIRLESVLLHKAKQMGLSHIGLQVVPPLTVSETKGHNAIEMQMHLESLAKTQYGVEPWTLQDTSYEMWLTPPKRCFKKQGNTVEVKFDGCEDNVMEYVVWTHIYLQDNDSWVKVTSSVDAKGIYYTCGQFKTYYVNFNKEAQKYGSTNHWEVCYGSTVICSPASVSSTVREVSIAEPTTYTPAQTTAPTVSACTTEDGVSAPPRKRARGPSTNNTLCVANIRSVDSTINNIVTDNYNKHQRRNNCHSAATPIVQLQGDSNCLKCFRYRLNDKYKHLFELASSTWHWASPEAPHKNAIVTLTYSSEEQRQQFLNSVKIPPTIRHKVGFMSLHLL

Row | SMILES | IC50 [2] | further results
1 | Cc1ccc2c(c1)C(=O)C1(OC(c3ccc(Cl)c(Cl)c3)C(C(=O)Nc3ccc(-c4csnn4)cc3)C1C(=O)O)C2=O (single isomer, unassigned) [A1007] |  | IC50 [1]: 0.5 to 5 µM
2 | Cc1ccc2c(c1)C(=O)C1(OC(c3ccc(Cl)c(Cl)c3)C(C(=O)Nc3ccc(-c4csnn4)cc3)C1C(=O)O)C2=O (single isomer, unassigned) [A1008] |  | IC50 [1]: < 0.5 µM
3 | CCCCNC(=O)C1C(c2ccc(Cl)c(Cl)c2)OC2(C(=O)c3ccccc3C2=O)C1C(=O)O (stereo not shown) [compound 1050] | 0.5 to 5 µM | 
4 | CC(=O)c1ccc(NC(=O)C2C(c3ccc(Cl)c(Cl)c3)OC3(C(=O)c4cc5ccccc5cc4C3=O)C2C(=O)O)cc1 (stereo not shown) [compound 1090] | 5 to 50 µM | 
5 | CC(=O)c1ccc(NC(=O)C2C(c3ccc(Cl)c(Cl)c3)OC3(C(=O)c4ccc5ccccc5c4C3=O)C2C(=O)O)cc1 (stereo not shown) [compound 1091] | 5 to 50 µM | 
6 | CC(=O)c1ccc(NC(=O)C2C(c3ccc(Cl)c(Cl)c3)OC3(C(=O)c4ccc5ccccc5c4C3=O)C2C(=O)O)cc1 (stereo not shown) [compound 1095] | 5 to 50 µM | 
7 | CC(=O)c1ccc(NC(=O)C2C(/C=C/c3ccccc3)OC3(C(=O)c4ccccc4C3=O)C2C(=O)O)cc1 (stereo not shown) [compound 4005] |  | IC50 (Table 4, racemic cis/cis isomer (form 1)): 5 to 50 µM
